Holding throughout (type): functional
For experiment [1], the system named is Clostridioides difficile. In words: Antibacterial activity against Clostridium difficile CD5 expressing tet(W) gene.
Experiment [2] relates to Clostridioides difficile. The experiment in a line: Antibacterial activity against Clostridium difficile clinical isolate expressing tet(M) gene by Etest.
The test system of experiment [3] is Clostridioides difficile. The experiment in a line: Antibacterial activity against Clostridium difficile CD37 harboring tet(M) gene from Clostridium difficile CD5.

The MIC is the lowest concentration that inhibits growth of the organism.

Each structure is given as a SMILES string. In brackets after ≈: the same amount, converted by molar mass.

For `CN(C)[C@@H]1C(O)=C(C(N)=O)C(=O)[C@@]2(O)C(O)=C3C(=O)c4c(O)cccc4[C@@](C)(O)[C@H]3C[C@@H]12` [TETRACYCLINE], the minimum inhibitory concentration (MIC) in the experiment with Clostridioides difficile [1] was 8 µg/mL (≈ 18 µM); against Clostridioides difficile [2] it was at least 8 µg/mL; in the experiment on Clostridioides difficile [3] it was 8 µg/mL (≈ 18 µM).

The values above are taken from ChEMBL document CHEMBL1152996, “Tetracycline resistance gene tet(W) in the pathogenic bacterium Clostridium difficile” (2008).
